“And” between values parts separate entries of the source, which are not always exact repeats. Identical values can stand only once. Like-named read-outs stand apart in the source and are kept apart here.
Experiments:
[1] = system: monkey brain capillary endothelial cells; test: In vitro blood-brain barrier (BBB) model (MBT-24H), transport between luminal and abluminal chambers, control or RAGE shRNA knockdown; conditions: individual wells, listed as OT; for OT in lower (abluminal, brain) chamber: blood-to-brain, 3 h; for OT in luminal chamber: brain-to-blood, n = 3
Description: EC, monkey brain capillary endothelial cells; Peri, rat brain pericytes; Astro, rat astrocytes. […] The endothelial cells used in the upper chamber in a were treated with RAGE shRNA (knockdown, KD) or control (C or CNT) vectors to assess the effects of RAGE knockdown. […] Values are mean ± SEM
For the in vitro BBB model (MBT-24H, PharmaCo-Cell Co., Nagasaki, Japan), rat brain pericytes (1.5 × 10^4 cells/cm^2) and rat astrocytes (1.5 × 10^4 cells/cm^2) were seeded on the bottom of the collagen-coated polyester membranes of Transwell inserts (Corning Life Sciences, MA, USA). After 16 h the cells firmly adherent, monkey brain vascular endothelial cells (1.5 × 10^5 cells/cm^2) were then seeded on the upper side of the inserts in 24-well culture plates. The in vitro BBB models were established within 4 days of seeding the cells according to the manufacturer’s instructions. Trans-endothelial electrical resistance (TEER), which primarily reflects the flux of sodium ions through the cell layers in the culture conditions, was measured with an epithelial-volt-ohm metre and an Endohm-6 chamber electrodes (World Precision Instruments, Sarasota, FL, USA). The TEERs of the coated, cell-free filters were subtracted from the measured TEER values of the models and shown as Ω cm^2. The apparent permeability constants (Papp) between luminal and abluminal chambers were calculated from the distribution ratios. Endothelial expression was silenced using RAGE shRNA and the pSilencer 3.0-H1 vector (Ambion, Austin, TX, USA)[41]. […]

[2] = Oxytocin in CSF from the cisterna magna after administration, EIA; type: in vivo, mouse; conditions: for CSF OT: individual animals, listed as OT
Description: (§1) CSF was collected according to the protocol for sampling CSF from mice without detectable plasma contamination[77],[78]. Under ketamine anaesthesia (100 mg/kg intraperitoneally), the occipital skull was exposed, and the dura mater of the cisterna magna appeared as a glistening and clear reverse triangle through which the medulla oblongata, a major blood vessel (arteria dorsalis spinalis), and CSF space were visible. A capillary tube was inserted into the cisterna magna through the dura mater, blood-free CSF samples were collected with a 32G needle and immediately frozen with dry ice prior to storage at −80 °C. After CSF collections, blood samples were obtained by cardiac puncture from the mice under continuous ketamine anaesthesia.
(§2) The CSF samples (5 μl) were thawed and diluted 1:20 in assay buffer. CSF samples were assayed without protein extraction due to the low protein concentration in the CSF. […] The inter-assay and intra-assay coefficients of variation were less than 15%.

[3] = Plasma oxytocin after subcutaneous injection, EIA; type: in vivo, mouse; conditions: WT and Ager-/- male mice
Description: as §1, §2
Supplementary Figure 5. Transportation of peripherally administrated oxytocin (OT) or PBS into […]
Blood was recovered from the cardiac ventricles of the wild type (WT, RAGE+/+) and Ager-/- (RAGE-/-) male mice (n = 3–16). Oxytocin was measured in the extracted samples. […]
concentrations were measured with enzyme immunosorbent assay (EIA) or LC-MS/MS. […]

[4] = Oxytocin in CSF of the third ventricle after subcutaneous injection; type: in vivo, mouse; conditions: 90 min after sc 30 ng, 0 min = 100, individual animals, listed as OT
Description: In separate experiments we cannulated the third ventricles of WT and Ager^−/− mice and withdrew CSF for oxytocin measurements.
as §2

[5] = Oxytocin in CSF after transient brain ischaemia (BCCAO) or sham operation; type: in vivo, mouse; conditions: individual animals, listed as OT
[6] = cited from earlier work
[7] = set-up: method as in earlier work; conditions: i.n. application of 50 μg oxytocin in female pigs; ref 18 (Rault et al.); cited from earlier work

**Q.** Which “OT in lower (abluminal, brain) chamber” value ([1]; 1 ng/ml added to luminal chamber, control vector (C)) does the source give for CC[C@H](C)[C@@H]1NC(=O)[C@H](Cc2ccc(O)cc2)NC(=O)[C@@H](N)CSSC[C@@H](C(=O)N2CCC[C@H]2C(=O)N[C@@H](CC(C)C)C(=O)NCC(N)=O)NC(=O)[C@H](CC(N)=O)NC(=O)[C@H](CCC(N)=O)NC1=O [oxytocin, Oxytocin] here?
**A.** 10 pg/mL and 13 pg/mL and 13.5 pg/mL and 11.5 pg/mL and 22.2 pg/mL

**Q.** What about the “OT in lower (abluminal, brain) chamber” value ([1]; 1 ng/ml luminal, RAGE shRNA knockdown (KD)) of the same compound?
**A.** 5 pg/mL and 4.2 pg/mL and 2 pg/mL and 8 pg/mL

**Q.** And the “OT in lower (abluminal, brain) chamber” value ([1]; 10 ng/ml luminal, RAGE KD)?
**A.** 8 pg/mL and 8.5 pg/mL and 9 pg/mL and 5 pg/mL

**Q.** And the “OT in lower (abluminal, brain) chamber” value ([1]; 10 ng/ml luminal, control vector (C))?
**A.** 21 pg/mL and 28 pg/mL and 15.5 pg/mL and 24 pg/mL and 27 pg/mL

**Q.** And the “OT in luminal chamber” value ([1]; 1 ng/ml abluminal, RAGE KD)?
**A.** 0.32 pg/mL and 0.34 pg/mL and 0.36 pg/mL

**Q.** What about the “OT in luminal chamber” value ([1]; 1 ng/ml added to abluminal chamber, control (C)) of the same compound?
**A.** 0.84 pg/mL and 1.12 pg/mL and 0.62 pg/mL

**Q.** What about the “OT in luminal chamber” value ([1]; 10 ng/ml abluminal, RAGE KD) of the same compound?
**A.** 2 pg/mL and 1.68 pg/mL and 0.8 pg/mL

**Q.** What about the “OT in luminal chamber” value ([1]; 10 ng/ml abluminal, control (C)) of the same compound?
**A.** 4 pg/mL and 5.2 pg/mL and 5.4 pg/mL

**Q.** What about the “apparent permeability constant (Papp)” value ([1]; head 1 ng/ml, RAGE KD, calculated from distribution ratios) of the same compound?
**A.** 1.263 x10^-6 and 1.061 x10^-6 and 0.505 x10^-6 and 2.02 x10^-6

**Q.** What about the “apparent permeability constant (Papp)” value ([1]; head 1 ng/ml, control (C), calculated from distribution ratios across chambers) of the same compound?
**A.** 2.525 x10^-6 and 3.283 x10^-6 and 3.409 x10^-6 and 2.904 x10^-6

**Q.** What about the “apparent permeability constant (Papp)” value ([1]; head 10 ng/ml, RAGE KD, calculated from distribution ratios) of the same compound?
**A.** 0.076 x10^-6 and 0.098 x10^-6

**Q.** And the “CSF OT” value ([2]; KO (Ager-/-) mice, 60 min after sc oxytocin)?
**A.** 1.096% and 1.022% and 1.298% and 0.875% and 0.8155% and 0.9128% and 1.16% and 0.679% and 1.176% and 1.081% and 0.9794% and 0.8625%

**Q.** And the “CSF OT” value ([2]; KO+Tg mice, 60 min after sc oxytocin)?
**A.** 1.051% and 1.1275% and 0.9794% and 1.244% and 1.354% and 2.625%

**Q.** What about the “CSF OT” value ([2]; WT+Tg (endothelial human RAGE) mice, 60 min after sc oxytocin) of the same compound?
**A.** 1.066% and 1.83% and 1.926% and 1.872%

**Q.** What about the “CSF OT” value ([2]; female Ager-/- mice, 60 min after sc OT) of the same compound?
**A.** 110.13% and 105.01% and 103.76% and 85.23% and 99.81% and 68.15%

**Q.** What about the “CSF OT” value ([2]; female WT mice, 60 min after sc OT) of the same compound?
**A.** 169.21% and 199.15% and 65.08% and 204.46% and 219.88% and 175.37% and 233.36% and 183.92% and 188.35%

**Q.** What about the “oxytocin concentrations in the CSF of Ager-/- mice after injection” value ([2]; sc 30 ng/mouse, Ager-/- mice) of the same compound?
**A.** remained at baseline levels

**Q.** What about the “time of maxima of oxytocin in CSF from the cisterna magna” value ([2]; sc 30 ng/mouse, WT mice) of the same compound?
**A.** 1 to 2 h

**Q.** What about the “time of return of CSF oxytocin to baseline” value ([2]; sc 30 ng/mouse, WT mice) of the same compound?
**A.** 4 h

**Q.** What about the Tmax ([3]; plasma, sc 30 ng/mouse (approximately 1.1 μg/kg)) of the same compound?
**A.** ≤ 10 min

**Q.** What about the “time of return of blood oxytocin to baseline” value ([3]; sc 30 ng/mouse) of the same compound?
**A.** 1 to 2 h

**Q.** What about the “OT % in CSF of the 3rd ventricle” value ([4]; Ager+/+ male mice) of the same compound?
**A.** 295% and 138% and 171% and 41% and 195% and 116% and 100% and 188% and 206%

**Q.** And the “OT % in CSF of the 3rd ventricle” value ([4]; Ager-/- male mice)?
**A.** 137% and 73% and 77% and 133% and 80% and 118% and 115% and 103%

**Q.** And the “CSF OT” value ([5]; Ager-/- BCCAO male mice)?
**A.** 121.746% and 129.498% and 127.909% and 71.8544% and 61.8033% and 79.0857% and 110.296% and 99.9236% and 126.34%

**Q.** What about the “CSF OT” value ([5]; Ager-/- Sham male mice) of the same compound?
**A.** 71.8544% and 61.8033% and 67.0976% and 118.777% and 117.319% and 98.6976%

**Q.** And the “CSF OT” value ([5]; WT BCCAO male mice)?
**A.** 191.756% and 287.616% and 179.547% and 244.561% and 258.145%

**Q.** What about the “CSF OT” value ([5]; WT Sham male mice, cisterna magna, after exogenous oxytocin) of the same compound?
**A.** 155.233% and 188.051% and 122.984% and 133.451%

**Q.** What about the “share of peripherally applied oxytocin that reaches the CNS” value ([6]; 5 μg, 10 min after subcutaneous or intraperitoneal administration, rats) of the same compound?
**A.** approximately 0.002%

**Q.** And the bioavailability ([6]; LC/MS after administration of 500 μg oxytocin in rats)?
**A.** approximately 2%

**Q.** What about the “share of oxytocin peptide accumulated on the BBB” value ([6]; intracarotid artery bolus of 125I- or 3H-labelled oxytocin, rats) of the same compound?
**A.** 1–2%

**Q.** What about the bioavailability [7] of the same compound?
**A.** 0.001%

Reference: PMC6389896 (Communications Biology, 2019)
